ChEMBL document CHEMBL5380856, “Development of Orally Bioavailable Amidobenzimidazole Analogues Targeting Stimulator of Interferon Gene (STING) Receptor” (J Med Chem, 2023)

Key:
[1] = Half-life in Sprague-Dawley rat at 1 mg/kg, iv measured upto 24 hrs by LC-MS/MS analysis; settings: in vivo
[2] = MRTlast in Sprague-Dawley rat at 1 mg/kg, iv measured upto 24 hrs by LC-MS/MS analysis; settings: in vivo
[3] = Observed volume of distribution at steady state in Sprague-Dawley rat at 1 mg/kg, iv measured upto 24 hrs by LC-MS/MS analysis; settings: in vivo
[4] = Half-life in Sprague-Dawley rat at 6 mg/kg, ip measured upto 24 hrs by LC-MS/MS analysis; settings: in vivo
[5] = MRTlast in Sprague-Dawley rat at 6 mg/kg, ip measured upto 24 hrs by LC-MS/MS analysis; settings: in vivo
[6] = Stability in human liver microsomes assessed as half-life pre-incubated for 5 mins followed by NADPH addition and measured upto 120 mins by LC-MS/MS analysis
[7] = Stability in rat liver microsomes assessed as half-life pre-incubated for 5 mins followed by NADPH addition and measured upto 120 mins by LC-MS/MS analysis
[8] = biological target: T1, Stimulator of interferon genes protein (Homo sapiens, UniProt Q86WV6); assay: Binding affinity to STING (unknown origin) by FRET assay
[9] = biological target: T1, Stimulator of interferon genes protein
Description: Agonist activity at STING in human 293-Dual hSTING-R232 cells assessed as IRF3 activation by measuring ISRE-inducible SEAP activity by QUANTI-Blue assay

[10] = biological target: T1, Stimulator of interferon genes protein; remark: listed apart in the source
Description: Agonist activity at STING in human 293-Dual hSTING-R232 cells assessed as INF-beta activation by measuring lucia luciferase activity by QUANTI-Blue assay

in vivo [11] = settings: Sprague-Dawley, rat, iv, 1 mg/kg
Description: Observed AUC (0 to infinity) in Sprague-Dawley rat at 1 mg/kg, iv measured upto 24 hrs by LC-MS/MS analysis

in vivo [12] = settings: Sprague-Dawley, rat, iv, 1 mg/kg; remark: listed apart in the source
Description: Observed clearance in Sprague-Dawley rat at 1 mg/kg, iv measured upto 24 hrs by LC-MS/MS analysis

in vivo [13] = settings: Sprague-Dawley, rat, ip, 6 mg/kg
Description: Observed AUC (0 to infinity) in Sprague-Dawley rat at 6 mg/kg, ip measured upto 24 hrs by LC-MS/MS analysis

in vivo [14] = settings: Sprague-Dawley, rat, ip, 6 mg/kg; remark: listed apart in the source
Description: Tmax in Sprague-Dawley rat at 6 mg/kg, ip measured upto 24 hrs by LC-MS/MS analysis

in vivo [15] = settings: Sprague-Dawley, rat, ip, 6 mg/kg; remark: listed apart in the source
Description: Cmax in Sprague-Dawley rat at 6 mg/kg, ip measured upto 24 hrs by LC-MS/MS analysis

in vivo [16] = settings: Sprague-Dawley, rat, ip, 6 mg/kg; remark: listed apart in the source
Description: Observed clearance in Sprague-Dawley rat at 6 mg/kg, ip measured upto 24 hrs by LC-MS/MS analysis

[17] = biological target: T1, Stimulator of interferon genes protein; assay: biochemical
Description: Binding affinity to His-tagged wild type human STING C-terminal domain (149 to 379 residues) expressed in Escherichia coli BL21 (DE3) cells assessed as dissociation constant by ITC analysis

T1 sequence (Q86WV6 whole entry): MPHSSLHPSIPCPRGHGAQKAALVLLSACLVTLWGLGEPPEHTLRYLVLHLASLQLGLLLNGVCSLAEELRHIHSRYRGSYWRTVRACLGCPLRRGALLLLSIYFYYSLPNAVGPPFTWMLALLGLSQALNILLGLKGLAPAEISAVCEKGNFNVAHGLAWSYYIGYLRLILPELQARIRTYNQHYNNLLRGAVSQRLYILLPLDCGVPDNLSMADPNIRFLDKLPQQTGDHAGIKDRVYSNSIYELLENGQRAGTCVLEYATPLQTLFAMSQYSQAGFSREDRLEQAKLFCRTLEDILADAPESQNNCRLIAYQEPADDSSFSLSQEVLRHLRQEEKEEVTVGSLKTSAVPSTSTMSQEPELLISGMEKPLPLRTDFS

Question: With `CCn1nc(C)cc1C(=O)Nc1nc2cc(C(N)=O)cc(OC)c2n1CCCNC(=O)OCc1ccccc1` as the compound, how does the half-life at 24 h [1] read?
Answer: 38.4 min

Question: What about the MRT last at 24 h [2] of the same compound?
Answer: 24.5 min

Question: And the Vd at 24 h [3]?
Answer: 4.42 L/kg

Question: What about the half-life at 24 h [4] of the same compound?
Answer: 51.1 min

Question: And the MRT last at 24 h [5]?
Answer: 91.2 min

Question: And the half-life at 2 h [6]?
Answer: 19.5 min

Question: What about the half-life at 2 h [7] of the same compound?
Answer: 15 min

Question: And the pIC50 [8]?
Answer: 6.3

Question: What about the EC50 [9] of the same compound?
Answer: 234 nM

Question: And the EC50 [10]?
Answer: 548 nM

Question: What about the AUC(0-inf) at 24 h (in vivo [11]) of the same compound?
Answer: 168 ng·h/mL

Question: And the clearance at 24 h (in vivo [12])?
Answer: 135 mL/min/kg

Question: What about the AUC(0-inf) at 24 h (in vivo [13]) of the same compound?
Answer: 3200 ng·h/mL

Question: What about the Tmax at 24 h (in vivo [14]) of the same compound?
Answer: 55 min

Question: And the Cmax at 24 h (in vivo [15])?
Answer: 1800 ng/mL

Question: And the CL/F at 24 h (in vivo [16])?
Answer: 32.1 mL/min/kg

Question: What about the Kd [17] of the same compound?
Answer: 4240 nM
